Assay results published in patent publication US11945813B2, “5-substituted 4-amino-1H-benzo[c][1,2,6]thiadiazine 2,2-dioxides and formulations and uses thereof” (Firmenich Incorporated, priority 2018, dated 2024).

Molecular target: T1, T1R2/T1R3 taste receptor (Homo sapiens, UniProt Q8TE23)
T1 sequence (Q8TE23 20-839): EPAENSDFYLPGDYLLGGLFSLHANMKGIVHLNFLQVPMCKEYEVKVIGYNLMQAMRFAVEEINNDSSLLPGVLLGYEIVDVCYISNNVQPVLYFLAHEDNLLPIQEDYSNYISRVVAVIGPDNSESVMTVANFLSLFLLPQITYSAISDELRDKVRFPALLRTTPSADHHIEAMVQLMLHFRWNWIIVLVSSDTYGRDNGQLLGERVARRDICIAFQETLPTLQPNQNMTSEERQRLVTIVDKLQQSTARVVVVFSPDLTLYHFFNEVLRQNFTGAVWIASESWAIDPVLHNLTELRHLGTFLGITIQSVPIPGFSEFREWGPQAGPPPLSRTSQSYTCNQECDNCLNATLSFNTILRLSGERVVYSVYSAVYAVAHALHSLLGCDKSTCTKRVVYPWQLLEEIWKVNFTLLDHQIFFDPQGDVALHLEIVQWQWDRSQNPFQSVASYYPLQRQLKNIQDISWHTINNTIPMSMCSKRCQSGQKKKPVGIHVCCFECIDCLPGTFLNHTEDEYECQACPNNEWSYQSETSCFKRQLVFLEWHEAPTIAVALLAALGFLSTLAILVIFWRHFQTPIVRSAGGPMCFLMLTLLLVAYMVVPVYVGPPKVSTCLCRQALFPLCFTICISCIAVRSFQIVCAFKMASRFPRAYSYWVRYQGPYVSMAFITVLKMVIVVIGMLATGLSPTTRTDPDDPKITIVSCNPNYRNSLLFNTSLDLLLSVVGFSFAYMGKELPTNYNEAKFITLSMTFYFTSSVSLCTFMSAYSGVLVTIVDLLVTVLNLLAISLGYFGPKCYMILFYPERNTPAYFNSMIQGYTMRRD
T1 sequence (Q7RTX0 21-852 partner): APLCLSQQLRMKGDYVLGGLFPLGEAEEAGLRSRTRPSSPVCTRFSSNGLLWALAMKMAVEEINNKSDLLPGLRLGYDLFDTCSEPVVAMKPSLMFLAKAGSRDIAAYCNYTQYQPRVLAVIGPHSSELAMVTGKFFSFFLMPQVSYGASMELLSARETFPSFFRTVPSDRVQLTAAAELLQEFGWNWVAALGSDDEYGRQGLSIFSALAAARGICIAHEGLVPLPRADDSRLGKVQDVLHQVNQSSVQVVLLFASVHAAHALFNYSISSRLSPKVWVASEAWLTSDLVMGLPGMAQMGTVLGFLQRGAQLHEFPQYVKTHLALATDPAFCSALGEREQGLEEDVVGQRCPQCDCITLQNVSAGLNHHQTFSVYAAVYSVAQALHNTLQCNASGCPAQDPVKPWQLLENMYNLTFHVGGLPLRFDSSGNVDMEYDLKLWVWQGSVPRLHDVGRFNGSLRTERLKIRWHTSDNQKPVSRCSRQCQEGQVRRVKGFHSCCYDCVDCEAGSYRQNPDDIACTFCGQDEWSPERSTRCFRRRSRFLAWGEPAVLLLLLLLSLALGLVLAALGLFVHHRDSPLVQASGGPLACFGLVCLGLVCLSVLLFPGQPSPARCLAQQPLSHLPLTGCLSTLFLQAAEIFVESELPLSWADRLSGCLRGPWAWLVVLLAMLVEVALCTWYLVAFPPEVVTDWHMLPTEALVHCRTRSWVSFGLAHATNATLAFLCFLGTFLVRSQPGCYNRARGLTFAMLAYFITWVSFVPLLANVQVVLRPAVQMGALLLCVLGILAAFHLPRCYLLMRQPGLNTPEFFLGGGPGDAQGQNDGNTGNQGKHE
Assay: Receptor-based assay: sweetener EC50 alone and with test compound (enhancement ratio)
Assay type: cell-based
Details: for Sucralose Enhancement EC50 Ratio: sweetener sucralose; for Sucrose Enhancement EC50 Ratio: sweetener sucrose; for Fructose Enhancement EC50 Ratio: sweetener fructose
How it was run: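 Sucrose, sucralose or fructose EC50 measured on human T1R2/T1R3, alone and with 3, 10 or 50 μM test compound. Enhancement is the EC50 ratio without/with compound, binned A >20, B 10-20, C >1 to <10.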

Row | Structure (SMILES) | Sucralose Enhancement EC50 Ratio (10 μM test compound) | Sucralose Enhancement EC50 Ratio (50 μM test compound) | Sucrose Enhancement EC50 Ratio (3 μM test compound) | Sucrose Enhancement EC50 Ratio (50 μM test compound) | Fructose Enhancement EC50 Ratio (10 μM test compound) | Fructose Enhancement EC50 Ratio (50 μM test compound) | Sucrose Enhancement EC50 Ratio (10 μM test compound)
1 | CNC(=O)c1ccnc(N2CCC[C@H](COc3cccc4c3C(N)=NS(=O)(=O)N4)C2)c1 [Compound 600] | A (An “A” value indicates an enhancement ratio of greater than 20) | A (An “A” value indicates an enhancement ratio of greater than 20) | C (A “C” value indicates an enhancement ratio greater than 1 and less than 10) | B (A “B” value indicates an enhancement ratio from 10 to 20) |  |  | 
2 | CCNC(=O)c1ccnc(N2CCC[C@H](COc3cccc4c3C(N)=NS(=O)(=O)N4)C2)c1 [Compound 601] |  |  | C (A “C” value indicates an enhancement ratio greater than 1 and less than 10) | A (An “A” value indicates an enhancement ratio of greater than 20) | C (A “C” value indicates an enhancement ratio greater than 1 and less than 10) | C (A “C” value indicates an enhancement ratio greater than 1 and less than 10) | C (A “C” value indicates an enhancement ratio greater than 1 and less than 10)
3 | CCCNC(=O)c1ccnc(N2CCC[C@H](COc3cccc4c3C(N)=NS(=O)(=O)N4)C2)c1 [Compound 602] | A (An “A” value indicates an enhancement ratio of greater than 20) | A (An “A” value indicates an enhancement ratio of greater than 20) | C (A “C” value indicates an enhancement ratio greater than 1 and less than 10) |  | C (A “C” value indicates an enhancement ratio greater than 1 and less than 10) | C (A “C” value indicates an enhancement ratio greater than 1 and less than 10) | B (A “B” value indicates an enhancement ratio from 10 to 20)
4 | NC1=NS(=O)(=O)Nc2cccc(OC[C@H]3CCCN(c4cc(C(=O)NCCO)ccn4)C3)c21 [Compound 603] | A (An “A” value indicates an enhancement ratio of greater than 20) |  | C (A “C” value indicates an enhancement ratio greater than 1 and less than 10) | C (A “C” value indicates an enhancement ratio greater than 1 and less than 10) | C (A “C” value indicates an enhancement ratio greater than 1 and less than 10) | C (A “C” value indicates an enhancement ratio greater than 1 and less than 10) | B (A “B” value indicates an enhancement ratio from 10 to 20)
5 | COCCNC(=O)c1ccnc(N2CCC[C@H](COc3cccc4c3C(N)=NS(=O)(=O)N4)C2)c1 [Compound 604] | A (An “A” value indicates an enhancement ratio of greater than 20) |  |  | B (A “B” value indicates an enhancement ratio from 10 to 20) |  | C (A “C” value indicates an enhancement ratio greater than 1 and less than 10) | 
6 | CN(C)CCNC(=O)c1ccnc(N2CCC[C@H](COc3cccc4c3C(N)=NS(=O)(=O)N4)C2)c1 [Compound 605] | A (An “A” value indicates an enhancement ratio of greater than 20) | A (An “A” value indicates an enhancement ratio of greater than 20) | C (A “C” value indicates an enhancement ratio greater than 1 and less than 10) | B (A “B” value indicates an enhancement ratio from 10 to 20) | C (A “C” value indicates an enhancement ratio greater than 1 and less than 10) | C (A “C” value indicates an enhancement ratio greater than 1 and less than 10) | C (A “C” value indicates an enhancement ratio greater than 1 and less than 10)
7 | CC(C)NC(=O)c1ccnc(N2CCC[C@H](COc3cccc4c3C(N)=NS(=O)(=O)N4)C2)c1 [Compound 606] | A (An “A” value indicates an enhancement ratio of greater than 20) | A (An “A” value indicates an enhancement ratio of greater than 20) | C (A “C” value indicates an enhancement ratio greater than 1 and less than 10) | C (A “C” value indicates an enhancement ratio greater than 1 and less than 10) | C (A “C” value indicates an enhancement ratio greater than 1 and less than 10) | C (A “C” value indicates an enhancement ratio greater than 1 and less than 10) | B (A “B” value indicates an enhancement ratio from 10 to 20)
8 | NC1=NS(=O)(=O)Nc2cccc(OC[C@H]3CCCN(c4cc(C(=O)NC5CC5)ccn4)C3)c21 [Compound 607] |  |  | A (An “A” value indicates an enhancement ratio of greater than 20) | C (A “C” value indicates an enhancement ratio greater than 1 and less than 10) | C (A “C” value indicates an enhancement ratio greater than 1 and less than 10) |  | B (A “B” value indicates an enhancement ratio from 10 to 20)
9 | NC1=NS(=O)(=O)Nc2cccc(OC[C@H]3CCCN(c4cc(C(=O)NC5CCCC5)ccn4)C3)c21 [Compound 608] | A (An “A” value indicates an enhancement ratio of greater than 20) | A (An “A” value indicates an enhancement ratio of greater than 20) | C (A “C” value indicates an enhancement ratio greater than 1 and less than 10) | B (A “B” value indicates an enhancement ratio from 10 to 20) | C (A “C” value indicates an enhancement ratio greater than 1 and less than 10) | C (A “C” value indicates an enhancement ratio greater than 1 and less than 10) | C (A “C” value indicates an enhancement ratio greater than 1 and less than 10)
10 | NC1=NS(=O)(=O)Nc2cccc(OC[C@H]3CCCN(c4cc(C(=O)NC5CCCCC5)ccn4)C3)c21 [Compound 609] | B (A “B” value indicates an enhancement ratio from 10 to 20) | B (A “B” value indicates an enhancement ratio from 10 to 20) | C (A “C” value indicates an enhancement ratio greater than 1 and less than 10) | C (A “C” value indicates an enhancement ratio greater than 1 and less than 10) | C (A “C” value indicates an enhancement ratio greater than 1 and less than 10) | C (A “C” value indicates an enhancement ratio greater than 1 and less than 10) | C (A “C” value indicates an enhancement ratio greater than 1 and less than 10)
